Laboratory results taken from patent US10645928B2, “Pesticidally active polycyclic derivatives with sulfur containing substituents” (Syngenta Participations AG, priority 2014, dated 2020).

How the values were obtained:
Format in all cases: in vivo
[1] = tested on: Spodoptera littoralis (Egyptian Cotton Leaf Worm); assay: Example B18: Spodoptera littoralis, compound in agar absorbed by lettuce roots, mortality, anti-feedant effect and growth inhibition; conditions: 144 h, test rate of 12.5 ppm, uptake by lettuce roots, Spodoptera eggs, 6 days after infestation, read-out: effect in at least one of the three categories (mortality, anti-feeding, or growth inhibition)
Text: Test compounds were applied by pipette from 10,000 ppm DMSO stock solutions into 24-well plates and mixed with agar. Lettuce seeds were placed onto the agar and the multi well plate was closed by another plate which contained also agar. After 7 days the compound was absorbed by the roots and the lettuce grew into the lid plate. The lettuce leaves were then cut off into the lid plate. Spodoptera eggs were pipetted through a plastic stencil onto a humid gel blotting paper and the lid plate was closed with it. The samples were assessed for mortality, anti-feedant effect and growth inhibition in comparison to untreated samples 6 days after infestation.

[2] = tested on: Spodoptera littoralis (Egyptian Cotton Leaf Worm); assay: Example B16: Spodoptera littoralis, sprayed cotton leaf discs, mortality; conditions: foliar, 72 h, application rate of 200 ppm, L1 larvae, 3 days after infestation
Experimental: Cotton leaf discs were placed onto agar in 24-well microtiter plates and sprayed with aqueous test solutions prepared from 10,000 ppm DMSO stock solutions. After drying the leaf discs were infested with five L1 larvae. The samples were assessed for mortality 3 days after infestation.

[3] = tested on: Bemisia tabaci (Cotton White Fly); assay: Example B1: Bemisia tabaci, sprayed cotton leaf discs, mortality; conditions: foliar, 144 h, application rate of 200 ppm, adult white flies, 6 days after incubation
Experimental: Cotton leaf discs were placed on agar in 24-well microtiter plates and sprayed with aqueous test solutions prepared from 10,000 ppm DMSO stock solutions. After drying the leaf discs were infested with adult white flies. The samples were checked for mortality 6 days after incubation.

[4] = tested on: Plutella xylostella (Diamond Back Moth); assay: Example B12: Plutella xylostella, treated artificial diet, mortality; conditions: 120 h, application rate of 200 ppm, L2 larvae, 5 days after infestation
Experimental: 24-well microtiter plates with artificial diet were treated with aqueous test solutions prepared from 10,000 ppm DMSO stock solutions by pipetting. After drying, the plates were infested with L2 larvae (10 to 15 per well). The samples were assessed for mortality 5 days after infestation.

[5] = tested on: Spodoptera littoralis (Egyptian Cotton Leaf Worm); assay: Example B14: Spodoptera littoralis, sprayed cotton leaf discs, anti-feeding effect; conditions: foliar, 72 h, application rate of 200 ppm, L1 larvae, 3 days after infestation
Experimental: Cotton leaf discs were placed onto agar in 24-well microtiter plates and sprayed with aqueous test solutions prepared from 10,000 ppm DMSO stock solutions. After drying the leaf discs were infested with five L1 larvae. The samples were assessed for anti-feeding effect in comparison to untreated samples 3 days after infestation. Control of Spodoptera littoralis by a test sample is given when the anti-feedant effect is higher than the untreated sample.

[6] = tested on: Spodoptera littoralis (Egyptian Cotton Leaf Worm); assay: Example B17: Spodoptera littoralis, sprayed cotton leaf discs, mortality, anti-feeding effect and growth inhibition; conditions: foliar, 72 h, application rate of 200 ppm, L1 larvae, 3 days after infestation, read-out: control (at least one of mortality, anti-feedant effect, growth inhibition)
Experimental: Cotton leaf discs were placed onto agar in 24-well microtiter plates and sprayed with aqueous test solutions prepared from 10,000 ppm DMSO stock solutions. After drying the leaf discs were infested with five L1 larvae. The samples were assessed for mortality, anti-feeding effect, and growth inhibition in comparison to untreated samples 3 days after infestation. Control of Spodoptera littoralis by a test sample is given when at least one of the categories mortality, anti-feedant effect, and growth inhibition is higher than the untreated sample.

[7] = tested on: Spodoptera littoralis (Egyptian Cotton Leaf Worm); assay: Example B19: Spodoptera littoralis, compound in agar absorbed by lettuce roots, anti-feedant effect; conditions: 144 h, test rate of 12.5 ppm, uptake by lettuce roots, Spodoptera eggs, 6 days after infestation, read-out: anti-feeding
Text: Test compounds were applied by pipette prepared from 10,000 ppm DMSO stock solutions into 24-well plates and mixed with agar. Lettuce seeds were placed onto the agar and the multi well plate was closed by another plate which contained also agar. After 7 days the compound was absorbed by the roots and the lettuce grew into the lid plate. The lettuce leaves were then cut off into the lid plate. Spodoptera eggs were pipetted through a plastic stencil onto a humid gel blotting paper and the lid plate was closed with it. The samples were assessed for anti-feedant effect in comparison to untreated samples 6 days after infestation.

[8] = tested on: Euschistus heros (Neotropical Brown Stink Bug); assay: Example B5: Euschistus heros, sprayed soybean leaves, mortality; conditions: 120 h, application rate of 200 ppm, N2 nymphs, 5 days after infestation
Experimental: Soybean leaves on agar in 24-well microtiter plates were sprayed with aqueous test solutions prepared from 10,000 ppm DMSO stock solutions. After drying the leaves were infested with N2 nymphs. The samples were assessed for mortality 5 days after infestation.

[9] = tested on: Plutella xylostella (Diamond Back Moth); assay: Example B13: Plutella xylostella, treated artificial diet, mortality and growth inhibition; conditions: 120 h, application rate of 200 ppm, L2 larvae, 5 days after infestation, read-out: effect in at least one of the two categories (mortality or growth inhibition)
Experimental: 24-well microtiter plates with artificial diet were treated with aqueous test solutions prepared from 10,000 ppm DMSO stock solutions by pipetting. After drying, the plates were infested with L2 larvae (10 to 15 per well). The samples were assessed for mortality and growth inhibition in comparison to untreated samples 5 days after infestation.

[10] = tested on: Spodoptera littoralis (Egyptian Cotton Leaf Worm); assay: Example B20: Spodoptera littoralis, compound in agar absorbed by lettuce roots, mortality; conditions: 144 h, test rate of 12.5 ppm, uptake by lettuce roots, Spodoptera eggs, 6 days after infestation
Text: Test compounds were applied by pipette prepared from 10,000 ppm DMSO stock solutions into 24-well plates and mixed with agar. Lettuce seeds were placed onto the agar and the multi well plate was closed by another plate which contained also agar. After 7 days the compound was absorbed by the roots and the lettuce grew into the lid plate. The lettuce leaves were then cut off into the lid plate.
Spodoptera eggs were pipetted through a plastic stencil onto a humid gel blotting paper and the lid plate was closed with it. The samples were assessed for mortality 6 days after infestation.

[11] = tested on: Diabrotica balteata (Corn Root Worm); assay: Example B3: Diabrotica balteata, sprayed maize sprouts, mortality; conditions: 96 h, application rate of 200 ppm, L2 larvae, 4 days after infestation
Experimental: Maize sprouts placed onto an agar layer in 24-well microtiter plates were treated with aqueous test solutions prepared from 10,000 ppm DMSO stock solutions by spraying. After drying, the plates were infested with L2 larvae (6 to 10 per well). The samples were assessed for mortality 4 days after infestation.

[12] = tested on: Diabrotica balteata (Corn Root Worm); assay: Example B2: Diabrotica balteata, sprayed maize sprouts, mortality and growth inhibition; conditions: 96 h, application rate of 200 ppm, L2 larvae, 4 days after infestation, read-out: effect in at least one of the two categories (mortality or growth inhibition)
Experimental: Maize sprouts placed onto an agar layer in 24-well microtiter plates were treated with aqueous test solutions prepared from 10,000 ppm DMSO stock solutions by spraying. After drying, the plates were infested with L2 larvae (6 to 10 per well). The samples were assessed for mortality and growth inhibition in comparison to untreated samples 4 days after infestation.

[13] = tested on: Aedes aegypti (Yellow Fever Mosquito); assay: Example B23: Aedes aegypti, dry deposits in 12 well tissue culture plates, control; conditions: application rate of 200 ppm in ethanol, adult females, after 48 h and/or 24 h
Experimental: Test solutions, at an application rate of 200 ppm in ethanol, were applied to 12 well tissue culture plates. Once the deposits were dry, five, two to five day old adult female Aedes aegypti were added to each well, and sustained with a 10% sucrose solution in a cotton wool plug. Assessment of knockdown was made one hour after introduction, and mortality was assessed at 24 and 48 hours after introduction.

[14] = tested on: Euschistus heros (Neotropical Brown Stink Bug); assay: Example B6: Euschistus heros, sprayed soybean leaves, mortality and growth inhibition; conditions: 120 h, application rate of 200 ppm, N2 nymphs, 5 days after infestation, read-out: effect in at least one of the two categories (mortality or growth inhibition)
Experimental: Soybean leaves on agar in 24-well microtiter plates were sprayed with aqueous test solutions prepared from 10,000 ppm DMSO stock solutions. After drying the leaves were infested with N2 nymphs. The samples were assessed for mortality and growth inhibition in comparison to untreated samples 5 days after infestation.

[15] = tested on: Spodoptera littoralis (Egyptian Cotton Leaf Worm); assay: Example B15: Spodoptera littoralis, sprayed cotton leaf discs, growth inhibition; conditions: foliar, 72 h, application rate of 200 ppm, L1 larvae, 3 days after infestation, read-out: control (growth inhibition)
Experimental: Cotton leaf discs were placed onto agar in 24-well microtiter plates and sprayed with aqueous test solutions prepared from 10,000 ppm DMSO stock solutions. After drying the leaf discs were infested with five L1 larvae. The samples were assessed for growth inhibition in comparison to untreated samples 3 days after infestation. Control of Spodoptera littoralis by a test sample is given when the growth inhibition is higher than the untreated sample.

[16] = tested on: Plutella xylostella (Diamond Back Moth); assay: Example B10: Plutella xylostella, treated artificial diet, growth inhibition; conditions: 120 h, application rate of 200 ppm, L2 larvae, 5 days after infestation
Experimental: 24-well microtiter plates with artificial diet were treated with aqueous test solutions prepared from 10,000 ppm DMSO stock solutions by pipetting. After drying, the plates were infested with L2 larvae (10 to 15 per well). The samples were assessed for growth inhibition in comparison to untreated samples 5 days after infestation. Control of Plutella xylostella by a test sample is given when the growth inhibition is higher than the untreated sample.

[17] = tested on: Frankliniella occidentalis (Western Flower Thrips); assay: Example B7: Frankliniella occidentalis, sprayed sunflower leaf discs, mortality; conditions: foliar, 168 h, application rate of 200 ppm, population of mixed ages, 7 days after infestation
Experimental: Sunflower leaf discs were placed on agar in 24-well microtiter plates and sprayed with aqueous test solutions prepared from 10,000 DMSO stock solutions. After drying the leaf discs were infested with a Frankliniella population of mixed ages. The samples were assessed for mortality 7 days after infestation.

[18] = tested on: Myzus persicae (Green Peach Aphid); assay: Example B8: Myzus persicae, sprayed sunflower leaf discs, mortality; conditions: foliar, 144 h, application rate of 200 ppm, leaf disc spray, aphid population of mixed ages, 6 days after infestation
Experimental: Sunflower leaf discs were placed onto agar in a 24-well microtiter plate and sprayed with aqueous test solutions prepared from 10,000 ppm DMSO stock solutions. After drying, the leaf discs were infested with an aphid population of mixed ages. The samples were assessed for mortality 6 days after infestation.

CCS(=O)(=O)c1cc(-n2ccc(C(F)(F)F)n2)cnc1-c1cn2cnc(C(F)(F)F)cc2n1 [Compound P4, 2-[3-ethylsulfonyl-5-[3-(trifluoromethyl)pyrazol-1-yl]-2-pyridyl]-7-(trifluoromethyl)imidazo[1,2-c]pyrimidine]
≥ 80%: percent effect (mortality, anti-feeding or growth inhibition) at 12.5 ppm [1] | mortality at 200 ppm [2] | mortality at 200 ppm [3] | mortality at 200 ppm [4] | pest or weed control at 200 ppm [5] | percent control (mortality, anti-feedant effect or growth inhibition) at 200 ppm [6] | pest or weed control at 12.5 ppm [7] | mortality at 200 ppm [8] | percent effect (mortality or growth inhibition) at 200 ppm [9] | mortality at 12.5 ppm [10] | mortality at 200 ppm [11] | percent effect (mortality or growth inhibition) at 200 ppm [12] | pest or weed control at 200 ppm [13] | percent effect (mortality or growth inhibition) at 200 ppm [14]

CCS(=O)(=O)c1cc(-c2cccc(SC)c2)cnc1-c1cn2cnc(C(F)(F)F)cc2n1 [Compound P9]
≥ 80%: mortality at 200 ppm [2] | inhibition at 200 ppm [15] | mortality at 200 ppm [4] | pest or weed control at 200 ppm [5] | percent control (mortality, anti-feedant effect or growth inhibition) at 200 ppm [6] | mortality at 200 ppm [8] | percent effect (mortality or growth inhibition) at 200 ppm [9] | inhibition at 200 ppm [16] | mortality at 200 ppm [11] | percent effect (mortality or growth inhibition) at 200 ppm [12] | pest or weed control at 200 ppm [13] | percent effect (mortality or growth inhibition) at 200 ppm [14]

CCS(=O)(=O)c1cc(-c2ccc(F)cc2F)cnc1-c1cn2cnc(C(F)(F)F)cc2n1 [Compound P11]
≥ 80%: percent effect (mortality, anti-feeding or growth inhibition) at 12.5 ppm [1] | mortality at 200 ppm [2] | mortality at 200 ppm [4] | mortality at 200 ppm [17] | pest or weed control at 200 ppm [5] | percent control (mortality, anti-feedant effect or growth inhibition) at 200 ppm [6] | mortality at 200 ppm [18] | pest or weed control at 12.5 ppm [7] | mortality at 200 ppm [8] | percent effect (mortality or growth inhibition) at 200 ppm [9] | mortality at 12.5 ppm [10] | mortality at 200 ppm [11] | percent effect (mortality or growth inhibition) at 200 ppm [12] | percent effect (mortality or growth inhibition) at 200 ppm [14]

CCS(=O)(=O)c1cc(-c2ccc(Cl)cc2)cnc1-c1cn2cnc(C(F)(F)C(F)(F)F)cc2n1 [Compound P15]
≥ 80%: percent effect (mortality, anti-feeding or growth inhibition) at 12.5 ppm [1] | mortality at 200 ppm [2] | mortality at 200 ppm [3] | mortality at 200 ppm [4] | mortality at 200 ppm [17] | pest or weed control at 200 ppm [5] | percent control (mortality, anti-feedant effect or growth inhibition) at 200 ppm [6] | pest or weed control at 12.5 ppm [7] | mortality at 200 ppm [8] | percent effect (mortality or growth inhibition) at 200 ppm [9] | mortality at 12.5 ppm [10] | percent effect (mortality or growth inhibition) at 200 ppm [12] | percent effect (mortality or growth inhibition) at 200 ppm [14]
